Source: patent publication US11504410B2, “Neuroprotection and neuroregeneration by pterostilbene and compositions thereof” (THERAPEUTIC SOLUTIONS INTERNATIONAL, INC., priority 2020, dated 2022)

Key:
[1] = tested on: classical complement activation pathway; conditions: cited from earlier work
[2] = tested on: classical complement activation pathway; conditions: 15 U intravenously, cited from earlier work
[3] = Relative bioavailability of pterostilbene; type: in vivo; conditions: compared with creatine monohydrate
Description: Without being bound by any particular theory, due to its improved solubility, pterostilbene is also expected to have better oral absorption properties compared to various other neuroprotectants. As used herein, “bioavailability” refers to the rate and amount of a drug or supplement that reaches the systemic circulation of a patient following administration of the drug or supplement. […] The terms “treatment,” “treating,” and “treat, are used herein to refer generally to obtaining a desired pharmacological and/or physiological effect. The effect may be prophylactic in terms of completely or partially preventing a disease or symptom thereof and/or may be therapeutic in terms of a partial or complete stabilization or cure for a disease and/or adverse effect attributable to the disease. “Treatment” as used herein covers any treatment of a disease in a subject, and includes: (a) preventing the disease or symptom from occurring in a subject which may be predisposed to the disease or symptom, but has not yet been diagnosed as having it; (b) inhibiting the disease symptom, i.e., arresting its development; or (c) relieving the disease symptom, i.e., causing regression of the disease or symptom.

C1-INH: C1-esterase inhibitor, inhibits the classical complement activation pathway
mean arterial blood pressure (MABP) and arterial blood gases ([1]; rat, in vivo): unaffected by the treatment
regional cerebral blood flow (rCBF) ([1]; rats, after occlusion, versus vehicle): No difference was noted between experimental groups
reduction of infarct volume ([1]; rats, infusion over 30 min after occlusion, evaluated after 5 days survival): 72%
improvement of focal neurologic deficits ([2]; 48 hours after ischemia): 54%
improvement of general neurologic deficits ([2]; 48 hours after ischemia): 36%
infarct volume of total brain ([2]; 48 hours after ischemia): 6.69%+/−2.93%
neutral red staining in cortex, hippocampus, and striatum [2]: strong protective effect

COc1cc(/C=C/c2ccc(O)cc2)cc(OC)c1 [pterostilbene]
relative bioavailability greater than creatine monohydrate [3]: at least 50%
